# Laboratory results: patent publication US12629368B2, “Use of N-(3-(4-(3-(diisobutylamino)propyl)piperazin-1-yl)propyl)-1H-benzo[d]imidazol-2-amine sulphate salts and solvates thereof for the treatment of motor neuron diseases and neuromuscular junction disorders” (ALZPROTECT, priority 2020, dated 2026)
# Key:
# ALS [1] = conditions: injected intravenously, small subset of people with ALS, phase 3; cited from earlier work
# [2] = system: rat primary motor neurons; test: Rat primary motor neurons injured with glutamate, 24 h pre-treatment + 24 h post-injury treatment (Example 2); type: cell-based
# Description: (§1) Rat motor neurons (MN) were cultured as previously described by Martinou et al., Neuron. 1992, April; 8(4), 737-44 and Wang et al. Hum. Mol. Genet., 2013 Dec. 1; 22(23), 4706-19. Pregnant female rats of 14 days gestation (Rats Wistar; Janvier Labs France) were killed using a deep anesthesia with CO2 followed by cervical dislocation. Then, fetuses were removed from the uterus and immediately placed in ice-cold L15 Leibovitz medium with a 2% penicillin (10,000 U/mL) and streptomycin (10 mg/mL) solution (PS) and 1% bovine serum albumin (BSA). Spinal cords were treated for 20 min at 37° C. with a trypsin-Ethylenediaminetetraacetic acid (EDTA) solution at a final concentration of 0.05% trypsin and 0.02% EDTA. The dissociation was stopped by the addition of Dulbecco's modified Eagle's medium (DMEM) with 4.5 g/liter of glucose, containing DNAse I grade II (final concentration 0.5 mg/mL) and 10% fetal calf serum (FCS). Cells were mechanically dissociated by three forced passages through the tip of a […]. Cells were then centrifuged at 180×g for 10 min at +4° C. on a layer of BSA (3.5%) in L15 medium. The supernatant was discarded, and the pellet was resuspended in a defined culture medium consisting of Neurobasal medium with a 2% solution of B27 supplement, 2 mmol/liter of L-glutamine, 2% of PS solution, and 10 ng/mL of brain-derived neurotrophic factor (BDNF). Viable cells were counted in a Neubauer cytometer, using the trypan blue exclusion test. The cells were seeded at a density of 20,000 per well in 96-well plates (immunostaining) precoated with poly-L-lysine and cultured at 37° C. in an air (95%)-CO2 (5%) incubator. The medium was changed every 2 days. The motor neurons were injured with glutamate after 13 days of culture.
# (§2) After 14 or 15 days of culture (48 h after the glutamate injury), the cell culture supernatant was collected and the spinal cord MNs were fixed by a cold solution of ethanol (95%) and acetic acid (5%) for 5 min at −20° C. After permeabilization with 0.1% of saponin, cells were blocked for 2 h with PBS containing 1% fetal calf serum. Then, cells were incubated with: • a) mouse monoclonal antibody anti-microtubule associated protein 2 (MAP-2) at dilution of 1/400 in PBS containing 1% fetal calf serum and 0.1% of saponin. This antibody binds specifically MAP-2 present in cell bodies and neurites of all MNs. […] Nuclei of neurons were labeled by a fluorescent marker (Hoechst solution). • b) Rabbit polyclonal antibody anti-TDP43 at dilution of 1/100 in PBS containing 1% fetal calf serum and 0.1% of saponin. Cytoplasmic localization of TDP43 was investigated.
# All images were taken under the same conditions (exposition time, gain and laser intensity). Analysis of different endpoints, were automatically performed using Custom Module Editor (Molecular Devices). Motoneurons (MAP-2) were distinguished from interneurons (staining MAP-2) using the following morphological criteria: a cell body diameter […] and the presence of a minimum of three neuritic processes (Ferraiuolo et al. Brain 2011: 134; 2627-2641).
# (§3) The endpoints were: • survival of MN (number of MN) • total neurite outgrowth of MN (expressed in μm) • TDP43 (extranuclear, eTDP43) in MN (expressed as area eTDP43-μm^2/number of MN) Statistical Analysis
# The culture was carried out as described in example 1.
# On day 12 of culture, primary motor neurons were treated with the sulphate salt for 24 hours. […]
# [3] = system: spinal cord/muscle neuromuscular junctions; test: Co-culture of human myoblasts and rat spinal cord explants injured with glutamate, neuromuscular junctions (Example 4); type: cell-based, human muscle cell line; conditions: 300 nM, glutamate 60 μM 20 min, 48 h
# [4] = system: SOD1^G93A Tg rat spinal cord motor neurons; test: Primary culture of SOD1G93A Tg rat spinal cord motor neurons injured with glutamate (Example 3); type: cell-based
# Description: The day of the dissection (from pregnant females at 14 days of gestation), a piece of each embryo head (˜3 mm^3) was placed in a 2 mL tube free DNase with a new scalpel. The DNA was extracted with the SYBR Green Extract-N-Amp tissue PCR kit (Sigma Aldrich). Briefly, 120 μL of extraction solution was put on each piece of embryo heads. Then, they were incubated for 10 min at room temperature. At the end of this incubation period, the heads were incubated for 5 min at 95° C. Immediately after this last incubation, 100 μL of neutralizing solution was added; each DNA extract was diluted at 1/40 and stored at +4° C. until use. SOD1^G93A gene was determined using genomic fragment with human SOD1 primers (5′-[…]-3′; 5′-[…]-3′). The SOD1 primers were diluted at 3 μM in sterile ultrapure water. Briefly, a mix for PCR was prepared with ultrapure water (4 μL per sample), primer at 3 μM (2 μL per sample) and Master Mix (10 μL per sample). In a PCR 96 wells plate, 16 μL of PCR mix was added in each well. 4 μL of each diluted DNA was added according to a plan deposit.
# Rat spinal cord (SC) motor neurons were cultured as described by Martinou et al., Neuron. 1992, April; 8(4), 737-44 and Wang et al. Hum. Mol. Genet., 2013 Dec. 1; 22(23), 4706-19. Pregnant female rats of 14 days of gestation were killed by cervical dislocation. Fetuses were collected and immediately placed in ice-cold L15 Leibovitz medium with a 2% penicillin (10,000 U/mL) and streptomycin (10 mg/mL) solution (PS) and 1% bovine serum albumin (BSA). Each fetus was dispatched on numerating petri dish (35 mm of diameter). Tail of fetuses were cut, placed on 1.5 ml tube free DNAase; the DNA was extracted with the Extract-N-Amp Tissue Kit.
# The genotyping of SOD tg fetuses was performed with the kit Fast SYBR Green Master Mix. This genotyping was made during the dissection of spinal cord, thus at the end of the dissection culture of SOD Tg spinal cord and WT spinal cord was done. Spinal cords were removed and placed in ice-cold medium of Leibovitz (L15). SC were treated for 20 min at 37° C. with a trypsin-EDTA solution at a final concentration of 0.05% trypsin and 0.02% EDTA. The dissociation was stopped by addition of Dulbecco's modified Eagle's medium (DMEM) with 4.5 g/liter of glucose, containing DNAse I grade II (final concentration 0.5 mg/mL) and 10% fetal calf serum (FCS). Cells were mechanically dissociated by three forced passages through the tip of a 10-ml pipette. Cells were then centrifuged at 180×g for 10 min at +4° C. on a layer of BSA (3.5%) in L15 medium. […] Viable cells were counted in a Neubauer cytometer, using the trypan blue exclusion test. […]
# [5] = system: primary culture of rat spinal motor neurons; test: Rat primary spinal motor neurons injured with glutamate, 48 h co-incubation (Example 1); type: cell-based; conditions: 48 h incubation
# Description: as §1
# On day 13 of culture, glutamate was added to a final concentration of 5 μM diluted in control medium in presence of the sulphate salt for 20 min. After 20 min, glutamate was washed and fresh culture medium with the sulphate salt was added for 48 hours.
# as §2
# All images were taken under the same conditions (exposition time, gain and laser intensity). Analysis of different endpoints, were automatically performed using Custom Module Editor (Molecular Devices). […]
# as §3
# All values are expressed as mean+/−SEM. […]
# ALS [6] = conditions: oral drug, ALS patients; cited from earlier work
# [7] = dose dependence, 5 μM glutamate 20 min, 48 h
structure (smiles),measurement,setting,value
CC1=NN(c2ccccc2)C(=O)C1 [Edavarone],Decline of ALS Functional Rating Scale-Revised score compared with placebo,ALS [1],significantly smaller decline
CC(C)CN(CCCN1CCN(CCCNc2nc3ccccc3[nH]2)CC1)CC(C)C.O=S(=O)(O)O.O=S(=O)(O)O [N-(3-(4-(3-(diisobutylamino)propyl)piperazin-1-yl)propyl)-1H-benzo[d]imidazol-2-amine di-sulphate],Effect on motor neuron survival compared to the glutamate condition,"[2]; 3 nM to 30 nM, 24 h pre-incubation + 24 h post-injury",positive and significant effect on survival
same,Extranuclear TDP-43 (abnormal distribution),"[2]; 10 nM to 30 nM, glutamate alone eTDP-43 signal 128% of control",able to fully prevent the abnormal distribution of TDP-43
same,"Neurite network integrity (mean length, percentage of control)","[2]; 30 nM (maximal effect), 24 h pre-incubation + 24 h post-injury",91%
same,"Motor neuron survival (mean survival, percentage of control)","[2]; 30 nM (maximal effect), 24 h pre-incubation + 24 h post-injury, glutamate alone 65%",87%
same,Effect on neurite network (protection from glutamate damage),"[2]; all investigated doses, 24 h pre-incubation + 24 h post-injury",able to protect the neurite network from glutamate damage
same,Neuroprotective effect on neuromuscular junctions and neurite network against glutamatergic stress,[3],successfully protected the neuromuscular junctions and the neurite network
same,Number of NMJs,[3],increased
same,Total area of NMJs,[3],increased
same,Total neurite network,[3],increased
same,Protective effects compared with Riluzole and Edaravone,[4]; 300 nM versus Riluzole 1 μM and Edaravone 5 μM,greater than those of Riluzole or Edaravone
same,"Neuroprotection (number of MNs, neurite network, TDP-43 distribution)","[4]; all investigated doses, 5 μM glutamate 20 min, 48 h",neuroprotective
same,Protective effect on neuronal survival,[4]; [7],dose-dependent
same,Protective effect on the distribution of TDP-43,[4]; [7],dose-dependent
same,Effect on motor neuron survival compared to the glutamate condition,"[5]; 10 nM to 30 nM, 5 μM glutamate 20 min",positive and significant effect on survival
same,"Neurite network integrity (mean length, percentage of control)","[5]; 30 nM (maximal effect), 5 μM glutamate 20 min",80%
same,"Motor neuron survival (mean survival, percentage of control)","[5]; 30 nM (maximal effect), 5 μM glutamate 20 min, glutamate alone 55%",82%
same,Extranuclear TDP-43 (cytoplasmic accumulation),"[5]; 10 and 30 nM, 5 μM glutamate 20 min",able to prevent the accumulation of TDP-43 in the cytoplasm
same,Effect on neurite network after glutamate injury,[5]; all investigated doses,able to improve the neurite network after glutamate injury
Nc1nc2ccc(OC(F)(F)F)cc2s1 [Riluzole],Effect on motor and respiratory functions,ALS [6],no effect
